Results as given in patent publication US20100021398A1, “COMPOSITIONS AND METHODS FOR LIGHTENING SKIN AND PROTECTING SKIN FROM ULTRAVIOLET RADIATION WITH GLUTATHIONE” (priority 2008, published 2010).

Experiments:
[1] = unmodified glutathione, cited from earlier work
Mitochondrial SOD 2 = assay: up-regulation of anti-oxidant enzyme SOD by glutathione; type: cell-based; conditions: glutathione up-regulating anti-oxidant enzymes

SMILES: N[C@@H](CCC(=O)N[C@@H](CS)C(=O)NCC(=O)O)C(=O)O [glutathione]
- half-life in the blood stream ([1]; blood stream): about a minute and a half
- half-life in the blood ([1]; blood): around 120 seconds
- SOD increase (Mitochondrial SOD 2): 182%
